Assay [1] deals with T1, endogenous interaction between CARP-1 and APC-2 in MDA-MB-468 HBC cells (Homo sapiens, UniProt Q8IX12).
T1 construct: endogenous in cells; host or cells: MDA-MB-468 human breast cancer cells
T1 sequence (Q8IX12 1-1150): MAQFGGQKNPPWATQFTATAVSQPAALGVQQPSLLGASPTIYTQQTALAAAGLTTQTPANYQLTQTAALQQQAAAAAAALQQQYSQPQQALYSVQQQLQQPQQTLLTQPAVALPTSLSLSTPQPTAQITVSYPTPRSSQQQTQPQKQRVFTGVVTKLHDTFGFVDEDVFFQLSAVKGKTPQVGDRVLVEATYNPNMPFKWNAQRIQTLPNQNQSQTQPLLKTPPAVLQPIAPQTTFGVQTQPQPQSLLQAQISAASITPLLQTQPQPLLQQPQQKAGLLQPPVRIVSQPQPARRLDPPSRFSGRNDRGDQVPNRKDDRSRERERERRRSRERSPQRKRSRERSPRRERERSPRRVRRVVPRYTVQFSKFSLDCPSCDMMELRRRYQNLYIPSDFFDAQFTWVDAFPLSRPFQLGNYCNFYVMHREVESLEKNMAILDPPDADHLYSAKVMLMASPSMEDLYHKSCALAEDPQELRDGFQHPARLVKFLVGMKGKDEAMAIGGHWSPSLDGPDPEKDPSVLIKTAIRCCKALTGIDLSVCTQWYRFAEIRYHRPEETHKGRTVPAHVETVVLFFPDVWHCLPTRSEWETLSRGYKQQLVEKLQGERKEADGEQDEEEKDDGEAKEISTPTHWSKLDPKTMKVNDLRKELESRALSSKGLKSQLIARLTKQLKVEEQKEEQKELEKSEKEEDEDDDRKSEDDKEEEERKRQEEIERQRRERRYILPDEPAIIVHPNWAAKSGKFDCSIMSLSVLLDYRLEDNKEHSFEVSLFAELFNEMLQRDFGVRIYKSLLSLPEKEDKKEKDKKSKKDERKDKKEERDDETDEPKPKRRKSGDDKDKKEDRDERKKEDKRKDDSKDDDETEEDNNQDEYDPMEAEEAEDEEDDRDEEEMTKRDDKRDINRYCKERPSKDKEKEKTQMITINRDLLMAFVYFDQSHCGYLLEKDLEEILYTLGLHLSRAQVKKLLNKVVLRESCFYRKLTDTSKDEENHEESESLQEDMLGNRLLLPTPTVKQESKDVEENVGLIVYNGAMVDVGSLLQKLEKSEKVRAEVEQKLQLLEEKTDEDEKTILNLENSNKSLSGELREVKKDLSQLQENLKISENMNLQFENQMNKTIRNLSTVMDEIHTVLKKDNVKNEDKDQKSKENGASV
Kind of assay: IP-WB of endogenous CARP-1/APC-2 interaction in treated cells. The format is cell-based. The following applies: escalating doses, 12 h. On the procedure:
FIGS. 2A-2D: Identification of small molecular antagonists of CARP-1 binding with APC-2. 2A, FP assay for CARP-1-APC-2 binding. Increasing concentrations of fluorescein-tagged A-epitope peptide [CARP-1 (951-980)] were incubated with the indicated quantities of the Gst-APC-2(685-754) proteins in assay buffer containing 0.01% triton-X100. Gst-NEMO (221-317) was included as a negative control. mP, millipolarization units. 2B, chemical structures of inhibitors of CARP-1 binding with APC-2 identified from HTS. CFM, CARP-1 Functional Mimetic; CFM-1, (Z)-5-(5-bromo-7-methyl-2-oxoindolin-3-ylidene)-2-thioxothiazolidin-4-one; CFM-4,1-(2-chlorobenzyl)-5′-phenyl-3′H-spiro[indoline-3,2′-[1,3,4]thiadiazol]-2-one; CFM-5,5-bromo-1-phenethyl-5′-phenyl-3′H-spiro[indoline-3,2′-[1,3,4]thiadiazol]-2-one. 2C, CFM-4 and CFM-5 bind CARP-1. […] The complexes were analyzed by SDS-PAGE followed by WB with the noted antibodies. […] Immunoprecipitates or the respective cell lysates were analyzed by WB with noted antibodies as in FIG. 1A. […]
Logarithmically growing cells were either untreated or treated with different agents for various time periods. […] The cell growth inhibition was assessed by using MTT assay. […] The assessment of the live cells was derived by measuring the absorbance of the converted dye at wavelength of 570 nm. […]

The subject of assay [2] is immortalized, non-tumorigenic mammary epithelial MCF-10A cells. Kind of assay: MTT cell viability assay, non-tumorigenic cells. The format is cell-based, human. On the procedure:
Logarithmically growing cells were either untreated or treated with different agents for various time periods. The cells were lysed to prepare protein extracts. IP was carried out by incubating approximately 1 mg of the protein lysate with appropriate antibodies, and the immunoprecipitates or cell lysates were then electrophoresed on 9-12% SDS-polyacrylamide gels, and transferred to nitrocellulose membranes. The membranes were subsequently probed with various antibodies to determine expression/presence of the corresponding proteins. The cell growth inhibition was assessed by using MTT assay. Briefly, MTT (3-[4,5-Dimethylthiazol-2-yl]-2,5diphenyltetrazolium bromide) was dissolved in sterile 1×PBS to prepare a stock solution of 5 mg/ml. […] The assessment of the live cells was derived by measuring the absorbance of the converted dye at wavelength of 570 nm.
To test whether CFMs that interfere with CARP-1 binding with APC-2 modulate cell growth, HBC, colon, prostate, pancreatic cancer, MPM and lymphoma cells, as well as the immortalized, mammary epithelial MCF-10A cells were utilized. The cells were either treated with vehicle (DMSO) or various doses of the respective compound for a period of 72 h, and percent of live/viable cells for each compound was determined relative to the untreated controls as described in Methods.

Regarding `O=C1N(Cc2ccccc2Cl)c2ccccc2C12NN=C(c1ccccc1)S2` (centres unmarked) [CFM-4, 1-(2-chlorobenzyl)-5′-phenyl-3′H-spiro[indoline-3,2′-[1,3,4]thiadiazol]-2-one], the “Binding of CARP-1 with APC-2 in cells (IP-WB)” value in assay [1] is “declined in the presence of CFM-4 in a dose-dependent manner”. In assay [2], the “growth of MCF-10A cells (MTT)” value is “failed to attenuate growth”.

The values above are taken from patent US9598441B2, “Therapeutic compounds and methods” (Wayne State University, priority 2011, dated 2017).
